According to patent US20040242687A1, “Thrombus/thrombogenesis inhibitors” (priority 2001, published 2004):
Entries after “also recorded” stand apart in the source; their conditions may differ. Where two headings read alike, the source gives them in different places.

What was measured:
[1] = system: patients with transient cerebral ischemic attack (TIA) / cerebral infarction; settings: for recurrence of TIA / onset or recurrence of cerebral infarction during administration: administration continued for 337 days, single patients, hydrochloride
Experimental: The present invention will be explained according to the following examples in more detail. However, the scope of the invention is not limited to these examples.
A person. They occurred transient cerebral ischemic attack (TIA). From three days after the onset, treatment with 160 mg/day of Cataclot (Ono Pharmaceutical Co., Ltd.) was started and it was continued for 2 weeks.
A person. They occurred TIA.
A person. They occurred TIA. From three days after the onset, treatment with 81 mg/day of Kids Bufferin (Lion Corporation) was started and this treatment was continued for about one month.
(§1) A person. They occurred cerebral infarction.
A person. They occurred cerebral infarction and, ten months after the occurrence of TIA.
as §1
A person. They occurred cerebral infarction. […] From that day of the onset of TIA, they were hospitalized for one week and subjected to intravenous drip containing 1 g of Nicholin H (Takeda Chemical Industries, Ltd.) and administration of 300 mg/day of Panaldine (Daiichi Pharmaceutical Co., Ltd.).
A person. They occurred cerebral infarction. […] They occurred TIA two years after the onset of cerebral infarction. From that day of the onset of TIA, administration of 200 mg/day of Panaldine (Daiichi Pharmaceutical Co., Ltd.) and, in addition, 162 mg/day of Kids Bufferin (Lion Corporation) was started.
A person. They occurred cerebral infarction. […] Immediately after the recurrence, they were treated with fluid for supplementation, urokinase and 300 mg/day of Panaldine (Daiichi Pharmaceutical Co., Ltd.).

[2] = system: stroke, myocardial infarction and vascular death; settings: 142 trials; cited from earlier work

SMILES	recurrence of TIA / onset or recurrence of cerebral infarction during administration ([1]; 75 mg/day)	recurrence of TIA / onset or recurrence of cerebral infarction during administration ([1]; 150 mg/day)	recurrence of TIA and cerebral infarction during administration ([1]; 150 mg/day, administration continued for 496 days, single patient)	recurrence of TIA / onset or recurrence of cerebral infarction during administration ([1]; 300 mg/day)	reduction ratio of odds concerning stroke, myocardial infarction and vascular death against the control group [2]
COc1cccc(CCc2ccccc2OCC(CN(C)C)OC(=O)CCC(=O)O)c1.Cl (racemic) [sarpogrelate hydrochloride, (±)-1-[O-[2-(m-methoxyphenyl)ethyl]phenoxy]-3-(dimethylamino)-2-propyl hydrogensuccinate hydrochloride]	neither recurrence of TIA nor onset of cerebral infarction was observed; also recorded: recurrence of TIA and cerebral infarction was not observed	neither recurrence of TIA nor onset of cerebral infarction was observed; also recorded: recurrence of TIA and cerebral infarction was not observed	recurrence of TIA and cerebral infarction was not observed	neither recurrence of TIA nor onset of cerebral infarction was observed; also recorded: recurrence of TIA and cerebral infarction was not observed	
CC(=O)Oc1ccccc1C(=O)O [aspirin]					25%
